Experimental data published in patent US20100003250A1, “(2-ARYL-7H-PYRROLO[2,3-D]PYRIMIDIN-4-YL)MORPHOLINE COMPOUNDS, THEIR USE AS MTOR KINASE AND PI3 KINASE INHIBITORS, AND THEIR SYNTHESES” (Wyeth, priority 2008, published 2010).

Tests used:
Format in all cases: biochemical
[1] = biological target: PI3Kγ (Homo sapiens, UniProt P48736); assay: PI3K-gamma fluorescence polarization assay; conditions: 20 μM PIP2, 25 μM ATP; read-out: PI3Kγ Median IC50
Method: PI3K-alpha and PI3K-gamma Fluorescence Polarization Assay Protocols
The reaction buffer was 20 mM HEPES pH 7.5, 2 mM MgCl2, 0.05% CHAPS, and 0.01% βME (added fresh). The substrate solution was 40 μM PIP2 (diC8, Echelon, Salt Lake City Utah cat # P-4508, 1 mM in water) and 50 μM ATP in the reaction buffer. Nunc 384-well black polypropylene fluorescent plates were used for PI3K assays. The assay is run by putting 9.5 μl of freshly diluted enzyme in the reaction buffer per well, adding 0.5 μl of diluted drug or DMSO, and mixing. Then 10 μl of the substrate solution is added to each well to start the reaction. A final concentration of 20 μM PIP2 and 25 μM ATP in the reaction was used. Reactions were allowed to proceed for 30-60 minutes at room temperature. After 30-60 minutes, 20 μl of a solution of 10 nM TAMRA detector (Red detector probe-Echelon) and 2.5 μM of GST-murineGRP (1.5 mg/ml in 17% glycerol) was added per well to stop the reaction. The resulting solution was mixed well and allowed to stand for 90-110 minutes before reading plate. Assay Plates were read on Perkin-Elmer Envision plate readers with appropriate filters for Tamra [BODIPY-TMRI(1,3,4,5)P4]. Data obtained were used to calculate enzymatic activity and enzyme inhibition by inhibitor compounds. It is important to keep Red probe solutions dark. This procedure is adapted from Echelon Biosciences Inc procedure for their PI3-Kinase fluorescence polarization activity Assay kit Product number K-1100.

[2] = biological target: PI3Kα (Homo sapiens, UniProt P42336); assay: PI3K-alpha fluorescence polarization assay; conditions: 20 μM PIP2, 25 μM ATP; read-out: PI3Kα Median IC50
[3] = biological target: T1, mTOR Kinase (FLAG-TOR) (Homo sapiens, UniProt P42345); assay: mTOR kinase assay, purified enzyme, DELFIA format; conditions: 100 μM ATP, 1.25 μM His6-S6K; read-out: mTOR Kinase Median IC50
T1 construct: FLAG

Chain of PI3Kα (P42336 whole entry, species assumed): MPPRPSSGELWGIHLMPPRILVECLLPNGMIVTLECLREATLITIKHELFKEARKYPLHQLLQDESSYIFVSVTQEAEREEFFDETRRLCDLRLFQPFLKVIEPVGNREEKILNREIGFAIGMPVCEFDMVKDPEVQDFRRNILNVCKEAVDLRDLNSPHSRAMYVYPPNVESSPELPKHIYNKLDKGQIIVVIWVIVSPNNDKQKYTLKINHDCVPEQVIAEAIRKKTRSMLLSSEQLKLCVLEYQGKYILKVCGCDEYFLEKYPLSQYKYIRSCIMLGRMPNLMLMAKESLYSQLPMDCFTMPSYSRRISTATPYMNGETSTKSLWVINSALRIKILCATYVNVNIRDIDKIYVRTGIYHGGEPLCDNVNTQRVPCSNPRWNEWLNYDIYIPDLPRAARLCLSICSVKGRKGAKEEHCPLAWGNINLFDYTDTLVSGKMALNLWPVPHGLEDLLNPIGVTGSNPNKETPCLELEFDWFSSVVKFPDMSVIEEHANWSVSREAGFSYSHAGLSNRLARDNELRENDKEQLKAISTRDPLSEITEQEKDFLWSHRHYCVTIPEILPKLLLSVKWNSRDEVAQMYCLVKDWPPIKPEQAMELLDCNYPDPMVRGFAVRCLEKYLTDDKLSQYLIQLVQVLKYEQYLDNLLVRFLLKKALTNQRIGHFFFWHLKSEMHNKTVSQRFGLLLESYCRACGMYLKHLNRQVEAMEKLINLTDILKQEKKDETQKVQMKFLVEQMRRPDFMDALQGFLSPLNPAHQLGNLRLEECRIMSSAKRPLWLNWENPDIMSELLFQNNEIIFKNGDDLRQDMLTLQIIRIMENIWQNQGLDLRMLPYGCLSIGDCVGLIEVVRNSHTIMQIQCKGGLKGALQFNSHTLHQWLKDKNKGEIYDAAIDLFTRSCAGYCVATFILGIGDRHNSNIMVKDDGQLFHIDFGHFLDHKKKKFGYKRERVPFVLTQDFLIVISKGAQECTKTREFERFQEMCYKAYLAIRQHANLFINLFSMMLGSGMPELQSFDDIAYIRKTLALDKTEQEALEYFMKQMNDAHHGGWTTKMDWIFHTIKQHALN
Chain of PI3Kα (P27986 whole entry partner, species assumed): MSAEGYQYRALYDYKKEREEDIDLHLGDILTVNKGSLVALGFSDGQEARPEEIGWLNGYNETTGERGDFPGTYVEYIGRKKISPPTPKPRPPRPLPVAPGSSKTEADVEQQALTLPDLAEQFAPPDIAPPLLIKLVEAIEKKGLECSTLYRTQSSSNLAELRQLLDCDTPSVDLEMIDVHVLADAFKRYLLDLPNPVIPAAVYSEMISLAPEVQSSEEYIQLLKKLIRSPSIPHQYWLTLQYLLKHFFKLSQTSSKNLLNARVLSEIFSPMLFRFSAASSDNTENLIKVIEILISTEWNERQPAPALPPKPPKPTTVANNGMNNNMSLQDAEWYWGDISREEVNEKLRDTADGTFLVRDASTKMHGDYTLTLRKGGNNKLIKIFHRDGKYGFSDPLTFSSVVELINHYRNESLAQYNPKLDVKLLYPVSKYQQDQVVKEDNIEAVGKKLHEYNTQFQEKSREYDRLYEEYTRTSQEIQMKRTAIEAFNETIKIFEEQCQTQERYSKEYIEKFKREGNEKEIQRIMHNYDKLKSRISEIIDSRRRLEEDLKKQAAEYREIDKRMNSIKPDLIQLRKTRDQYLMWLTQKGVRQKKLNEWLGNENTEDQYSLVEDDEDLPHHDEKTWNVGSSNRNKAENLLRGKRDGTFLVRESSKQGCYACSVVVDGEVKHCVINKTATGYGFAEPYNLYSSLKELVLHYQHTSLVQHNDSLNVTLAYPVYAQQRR
Chain of PI3Kγ (P48736 whole entry, species assumed): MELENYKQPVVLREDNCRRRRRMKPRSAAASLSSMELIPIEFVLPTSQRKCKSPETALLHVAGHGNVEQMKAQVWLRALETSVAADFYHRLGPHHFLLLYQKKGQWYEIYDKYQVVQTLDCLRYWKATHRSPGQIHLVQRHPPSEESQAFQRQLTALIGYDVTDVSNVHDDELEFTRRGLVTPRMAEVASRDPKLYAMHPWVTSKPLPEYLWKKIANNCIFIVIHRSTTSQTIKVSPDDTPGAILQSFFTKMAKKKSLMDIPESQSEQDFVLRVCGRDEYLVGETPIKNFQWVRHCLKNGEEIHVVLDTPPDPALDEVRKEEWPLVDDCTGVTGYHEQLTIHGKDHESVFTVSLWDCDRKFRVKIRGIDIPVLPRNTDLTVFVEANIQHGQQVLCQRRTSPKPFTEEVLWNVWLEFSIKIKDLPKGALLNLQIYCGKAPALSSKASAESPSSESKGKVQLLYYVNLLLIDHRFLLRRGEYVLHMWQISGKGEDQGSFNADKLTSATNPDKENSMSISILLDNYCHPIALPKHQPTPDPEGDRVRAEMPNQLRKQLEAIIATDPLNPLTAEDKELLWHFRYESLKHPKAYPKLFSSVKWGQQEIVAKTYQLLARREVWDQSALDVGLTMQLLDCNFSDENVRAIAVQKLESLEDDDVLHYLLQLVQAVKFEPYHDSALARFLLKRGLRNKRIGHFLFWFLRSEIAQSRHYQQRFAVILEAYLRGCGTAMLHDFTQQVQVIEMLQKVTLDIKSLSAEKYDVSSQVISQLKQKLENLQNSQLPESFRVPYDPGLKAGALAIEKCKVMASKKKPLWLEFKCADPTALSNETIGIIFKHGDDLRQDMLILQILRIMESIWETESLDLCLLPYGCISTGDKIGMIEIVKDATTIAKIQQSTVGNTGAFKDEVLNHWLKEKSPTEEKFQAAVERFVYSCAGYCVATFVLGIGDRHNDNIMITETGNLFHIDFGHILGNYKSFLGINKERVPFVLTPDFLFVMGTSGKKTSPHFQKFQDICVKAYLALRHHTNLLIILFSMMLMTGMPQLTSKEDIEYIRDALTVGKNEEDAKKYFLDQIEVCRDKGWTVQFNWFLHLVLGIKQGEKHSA

SMILES	IC50 [1] [nM]	IC50 [2] [nM]	IC50 [3] [nM]
CNc1nc2cc(-c3nc(N4CCOCC4)c4ccn(CC(F)(F)F)c4n3)ccc2[nH]1 [Compound 48, N-methyl-5-[4-morpholin-4-yl-7-(2,2,2-trifluoroethyl)-7H-pyrrolo[2,3-d]pyrimidin-2-yl]-1H-benzimidazol-2-amine]	3660	1200	340
CCOC(=O)Nc1nc2cc(-c3nc(N4CCOCC4)c4ccn(CC(F)(F)F)c4n3)ccc2[nH]1 [Compound 49, ethyl {5-[4-morpholin-4-yl-7-(2,2,2-trifluoroethyl)-7H-pyrrolo[2,3-d]pyrimidin-2-yl]-1H-benzimidazol-2-yl}carbamate]	210	1840	1450
COC(=O)c1ccc(NC(=O)Nc2ccc(-c3nc(N4CCOCC4)c4ccn(CC(F)(F)F)c4n3)cc2)cc1 [Compound 50, methyl 4-[({4-[4-morpholin-4-yl-7-(2,2,2-trifluoroethyl)-7H-pyrrolo[2,3-d]pyrimidin-2-yl]phenyl}carbamoyl)amino]benzoate]	> 10000	8710	4.9
CN(C)CCNC(=O)c1ccc(NC(=O)Nc2ccc(-c3nc(N4CCOCC4)c4ccn(CC(F)(F)F)c4n3)cc2)cc1 [Compound 52, N-[2-(dimethylamino)ethyl]-4-[({4-[4-morpholin-4-yl-7-(2,2,2-trifluoroethyl)-7H-pyrrolo[2,3-d]pyrimidin-2-yl]phenyl}carbamoyl)amino]benzamide]	24	1.1	0.3
O=C(Nc1ccc(C(=O)NCCN2CCCCC2)cc1)Nc1ccc(-c2nc(N3CCOCC3)c3ccn(CC(F)(F)F)c3n2)cc1 [Compound 56, 4-[({4-[4-morpholin-4-yl-7-(2,2,2-trifluoroethyl)-7H-pyrrolo[2,3-d]pyrimidin-2-yl]phenyl}carbamoyl)amino]-N-(2-piperidin-1-ylethyl)benzamide]	40	2.6	0.53
CCn1ccc2c(N3CCOCC3)nc(-c3ccc(NC(=O)Nc4ccc(C(=O)OC)cc4)cc3)nc21 [Compound 59, methyl 4-({[4-(7-ethyl-4-morpholin-4-yl-7H-pyrrolo[2,3-d]pyrimidin-2-yl)phenyl]carbamoyl}amino)benzoate]	562	166	4.7
CCn1ccc2c(N3CCOCC3)nc(-c3ccc(NC(=O)Nc4ccc(C(=O)O)cc4)cc3)nc21 [Compound 60, 4-({[4-(7-ethyl-4-morpholin-4-yl-7H-pyrrolo[2,3-d]pyrimidin-2-yl)phenyl]carbamoyl}amino)benzoic acid]	120	14.5	0.86
CCn1ccc2c(N3CCOCC3)nc(-c3ccc(NC(=O)Nc4ccc(C(=O)N(C)CCN(C)C)cc4)cc3)nc21 [Compound 61, N-[2-(dimethylamino)ethyl]-4-({[4-(7-ethyl-4-morpholin-4-yl-7H-pyrrolo[2,3-d]pyrimidin-2-yl)phenyl]carbamoyl}amino)-N-methylbenzamide]	20	< 1.9	0.43
CCn1ccc2c(N3CCOCC3)nc(-c3ccc(NC(=O)Nc4ccc(C(=O)NCCN(C)C)cc4)cc3)nc21 [Compound 62, N-[2-(dimethylamino)ethyl]-4-({[4-(7-ethyl-4-morpholin-4-yl-7H-pyrrolo[2,3-d]pyrimidin-2-yl)phenyl]carbamoyl}amino)benzamide]	25	< 2.4	0.56
CCn1ccc2c(N3CCOCC3)nc(-c3ccc(NC(=O)Nc4ccc(C(=O)N5CCC(N(C)C)CC5)cc4)cc3)nc21 [Compound 65, 1-(4-{[4-(dimethylamino)piperidin-1-yl]carbonyl}phenyl)-3-[4-(7-ethyl-4-morpholin-4-yl-7H-pyrrolo[2,3-d]pyrimidin-2-yl)phenyl]urea]	20	1.1	1.09
CCn1ccc2c(N3CCOCC3)nc(-c3ccc(NC(=O)Nc4ccc(C(=O)N5CCOCC5)cc4)cc3)nc21 [Compound 66, 1-[4-(7-ethyl-4-morpholin-4-yl-7H-pyrrolo[2,3-d]pyrimidin-2-yl)phenyl]-3-[4-(morpholin-4-ylcarbonyl)phenyl]urea]	30	3.5	2.4
CCn1ccc2c(N3CCOCC3)nc(-c3ccc(NC(=O)Nc4ccc(C(=O)NCCN5CCCCC5)cc4)cc3)nc21 [Compound 68, 4-({[4-(7-ethyl-4-morpholin-4-yl-7H-pyrrolo[2,3-d]pyrimidin-2-yl)phenyl]carbamoyl}amino)-N-(2-piperidin-1-ylethyl)benzamide]	61	4	0.91
CCn1ccc2c(N3CCOCC3)nc(-c3ccc(NC(=O)Nc4ccc(C(=O)N5CCC(N6CCCC6)CC5)cc4)cc3)nc21 [Compound 69, 1-[4-(7-ethyl-4-morpholin-4-yl-7H-pyrrolo[2,3-d]pyrimidin-2-yl)phenyl]-3-{4-[(4-pyrrolidin-1-ylpiperidin-1-yl)carbonyl]phenyl}urea]	24	2.1	0.8
CCN1CCN(C(=O)c2ccc(NC(=O)Nc3ccc(-c4nc(N5CCOCC5)c5ccn(CC)c5n4)cc3)cc2)CC1 [Compound 70, 1-[4-(7-ethyl-4-morpholin-4-yl-7H-pyrrolo[2,3-d]pyrimidin-2-yl)phenyl]-3-{4-[(4-ethylpiperazin-1-yl)carbonyl]phenyl}urea]	21	2.5	1.5
CCn1ccc2c(N3CCOCC3)nc(-c3ccc(NC(=O)Nc4ccc(C(=O)N5CCSCC5)cc4)cc3)nc21 [Compound 71, 1-[4-(7-ethyl-4-morpholin-4-yl-7H-pyrrolo[2,3-d]pyrimidin-2-yl)phenyl]-3-[4-(thiomorpholin-4-ylcarbonyl)phenyl]urea]	39	3.5	4.2

Compounds with a lower IC50 [1], results first:

IC50 [1] [nM]	IC50 [2] [nM]	IC50 [3] [nM]	SMILES
16	< 2.1	0.57	CNCCN(C)C(=O)c1ccc(NC(=O)Nc2ccc(-c3nc(N4CCOCC4)c4ccn(CC(F)(F)F)c4n3)cc2)cc1 [Compound 53, N-methyl-N-[2-(methylamino)ethyl]-4-[({4-[4-morpholin-4-yl-7-(2,2,2-trifluoroethyl)-7H-pyrrolo[2,3-d]pyrimidin-2-yl]phenyl}carbamoyl)amino]benzamide]
16	1.9	1.1	CN1CCN(C(=O)c2ccc(NC(=O)Nc3ccc(-c4nc(N5CCOCC5)c5ccn(CC(F)(F)F)c5n4)cc3)cc2)CC1 [Compound 54, 1-{4-[(4-methylpiperazin-1-yl)carbonyl]phenyl}-3-{4-[4-morpholin-4-yl-7-(2,2,2-trifluoroethyl)-7H-pyrrolo[2,3-d]pyrimidin-2-yl]phenyl}urea]
15	< 1.9	0.94	CC1(C)CN(C(=O)c2ccc(NC(=O)Nc3ccc(-c4nc(N5CCOCC5)c5ccn(CC(F)(F)F)c5n4)cc3)cc2)CCN1 [Compound 55, 1-{4-[(3,3-dimethylpiperazin-1-yl)carbonyl]phenyl}-3-{4-[4-morpholin-4-yl-7-(2,2,2-trifluoroethyl)-7H-pyrrolo[2,3-d]pyrimidin-2-yl]phenyl}urea]
11	2	4.5	CN(C)CCOc1ccc(NC(=O)Nc2ccc(-c3nc(N4CCOCC4)c4ccn(CC(F)(F)F)c4n3)cc2)cc1 [Compound 58, 1-{4-[2-(dimethylamino)ethoxy]phenyl}-3-{4-[4-morpholin-4-yl-7-(2,2,2-trifluoroethyl)-7H-pyrrolo[2,3-d]pyrimidin-2-yl]phenyl}urea]
19	1.4	1.75	CCn1ccc2c(N3CCOCC3)nc(-c3ccc(NC(=O)Nc4ccc(C(=O)N5CCN(C)CC5)cc4)cc3)nc21 [Compound 63, 1-[4-(7-ethyl-4-morpholin-4-yl-7H-pyrrolo[2,3-d]pyrimidin-2-yl)phenyl]-3-{4-[(4-methylpiperazin-1-yl)carbonyl]phenyl}urea]
13	< 1.7	1.8	CCn1ccc2c(N3CCOCC3)nc(-c3ccc(NC(=O)Nc4ccc(C(=O)N5C[C@@H](C)N[C@@H](C)C5)cc4)cc3)nc21 [Compound 64, 1-(4-{[(3R,5S)-3,5-dimethylpiperazin-1-yl]carbonyl}phenyl)-3-[4-(7-ethyl-4-morpholin-4-yl-7H-pyrrolo[2,3-d]pyrimidin-2-yl)phenyl]urea]
8	< 1.8	0.99	CCn1ccc2c(N3CCOCC3)nc(-c3ccc(NC(=O)Nc4ccc(C(=O)N5CCNCC5)cc4)cc3)nc21 [Compound 67, 1-[4-(7-ethyl-4-morpholin-4-yl-7H-pyrrolo[2,3-d]pyrimidin-2-yl)phenyl]-3-[4-(piperazin-1-ylcarbonyl)phenyl]urea]
